How the values were obtained:
[1] = biological target: SHP-2 enzyme (Met1-Leu525) (Homo sapiens (Human), UniProt Q06124); test: SHP2 inhibition enzymatic assay; type: biochemical; conditions: 0.5 nM SHP-2 activated by 500 nM IRS1 peptide, 75 μM DiFMUP substrate; read-out: SHP2wt-IC50
How it was run: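 Compounds were preincubated 30 min with 0.5 nM SHP-2 (Met1-Leu525) plus 500 nM IRS1 activating peptide (pH 7.2 HEPES, 5 mM DTT), then 75 μM DiFMUP substrate reacted 30 min at room temperature. After bpV quench, DiFMUP fluorescence gave % inhibition; four-parameter logistic fit yielded IC50.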

[2] = system: ERK phosphorylation in KYSE-520 cells; test: Phospho-ERK cellular assay; type: cell-based; conditions: Homo sapiens, KYSE-520, 2 h, KYSE-520 cells, 2 h at 37° C., phospho-ERK1/2 (Thr202/Tyr204) TR-FRET; read-out: PERK IC50
How it was run: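 TR-FRET read-out of ERK1/2 Thr202/Tyr204 phosphorylation was taken after overnight antibody incubation at room temperature. Before that, KYSE-520 cells were treated 2 h at 37 °C with compound dilutions and lysed 30 min. Percent inhibition relative to vehicle and cell-free wells was fitted four-parametrically to give IC50.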

SHP-2 enzyme (Met1-Leu525), sequence (Q06124 1-525): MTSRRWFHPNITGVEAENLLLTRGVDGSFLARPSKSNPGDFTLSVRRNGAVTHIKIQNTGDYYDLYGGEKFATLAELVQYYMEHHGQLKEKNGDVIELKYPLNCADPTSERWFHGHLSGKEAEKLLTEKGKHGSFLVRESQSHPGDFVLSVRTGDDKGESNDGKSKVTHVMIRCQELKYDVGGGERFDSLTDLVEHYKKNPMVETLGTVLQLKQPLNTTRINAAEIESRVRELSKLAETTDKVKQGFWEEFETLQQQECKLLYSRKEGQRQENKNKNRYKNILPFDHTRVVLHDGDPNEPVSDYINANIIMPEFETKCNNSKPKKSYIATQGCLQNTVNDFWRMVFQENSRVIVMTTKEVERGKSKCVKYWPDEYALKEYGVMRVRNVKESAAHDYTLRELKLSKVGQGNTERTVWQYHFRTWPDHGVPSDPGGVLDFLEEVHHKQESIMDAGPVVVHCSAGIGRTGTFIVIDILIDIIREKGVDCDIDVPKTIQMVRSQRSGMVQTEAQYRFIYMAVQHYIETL

Row | Structure (SMILES) | IC50 [1] [nM] | IC50 [2] [nM]
1 | NC[C@]1(c2ccccc2F)[C@@H]2CCN(c3cnc4c(-c5ccc(C(N)=O)c6ncccc56)n[nH]c4n3)C[C@@H]21 [Example 220, 5-(6-((1S,6R,7R)-7-(aminomethyl)-7-(2-fluorophenyl)-3-azabicyclo[4.1.0]heptan-3-yl)-1H-pyrazolo[3,4-b]pyrazin-3-yl)quinoline-8-carboxamide] | < 500 | < 1000
2 | Cn1cc2c(Cl)c(-c3n[nH]c4nc(N5C[C@@H]6[C@H](C5)[C@@]6(CN)c5c(F)cccc5F)cnc34)ccc2n1 [Example 221, ((1R,5S,6s)-3-(3-(4-chloro-2-methyl-2H-indazol-5-yl)-1H-pyrazolo[3,4-b]pyrazin-6-yl)-6-(2,6-difluorophenyl)-3-azabicyclo[3.1.0]hexan-6-yl)methanamine] | < 500 | < 1000
3 | Cc1c(-c2n[nH]c3nc(N4CC[C@@H]5[C@H](C4)[C@@]5(CN)c4ccccc4F)cnc23)ccc2nccnc12 [Example 222, ((1S,6R,7R)-7-(2-fluorophenyl)-3-(3-(5-methylquinoxalin-6-yl)-1H-pyrazolo[3,4-b]pyrazin-6-yl)-3-azabicyclo[4.1.0]heptan-7-yl)methanamine] | < 500 | < 1000
4 | COC(=O)c1ccc(-c2n[nH]c3nc(N4CC[C@@H]5[C@H](C4)[C@@]5(CN)c4ccccc4F)cnc23)c(Cl)c1 [Example 223, methyl 4-(6-((1S,6R,7R)-7-(aminomethyl)-7-(2-fluorophenyl)-3-azabicyclo[4.1.0]heptan-3-yl)-1H-pyrazolo[3,4-b]pyrazin-3-yl)-3-chlorobenzoate] | < 500 | < 1000
5 | NC[C@]1(c2ccccc2F)[C@@H]2CCN(c3cnc4c(-c5cnc6ccccn56)n[nH]c4n3)C[C@@H]21 [Example 224, ((1S,6R,7R)-7-(2-fluorophenyl)-3-(3-(imidazo[1,2-a]pyridin-3-yl)-1H-pyrazolo[3,4-b]pyrazin-6-yl)-3-azabicyclo[4.1.0]heptan-7-yl)methanamine] | < 500 | < 1000
6 | COc1c(F)cc(-c2n[nH]c3nc(N4CC[C@@H]5[C@H](C4)[C@@]5(CN)c4ccccc4F)cnc23)c2cccnc12 [Example 225, ((1S,6R,7R)-3-(3-(7-fluoro-8-methoxyquinolin-5-yl)-1H-pyrazolo[3,4-b]pyrazin-6-yl)-7-(2-fluorophenyl)-3-azabicyclo[4.1.0]heptan-7-yl)methanamine] | < 500 | < 1000
7 | Cc1ccc2c(-c3n[nH]c4nc(N5CC[C@@H]6[C@H](C5)[C@@]6(CN)c5ccccc5F)cnc34)ccc(F)c2n1 [Example 226, ((1S,6R,7R)-3-(3-(8-fluoro-2-methylquinolin-5-yl)-1H-pyrazolo[3,4-b]pyrazin-6-yl)-7-(2-fluorophenyl)-3-azabicyclo[4.1.0]heptan-7-yl)methanamine] | < 500 | < 1000
8 | NC[C@]1(c2ccccc2F)[C@@H]2CCN(c3cnc4c(-c5ccc(C(=O)O)c(Cl)c5Cl)n[nH]c4n3)C[C@@H]21 [Example 227, 4-(6-((1S,6R,7R)-7-(aminomethyl)-7-(2-fluorophenyl)-3-azabicyclo[4.1.0]heptan-3-yl)-1H-pyrazolo[3,4-b]pyrazin-3-yl)-2,3-dichlorobenzoic acid] | < 500 | > 5000
9 | CN1C(=O)COc2ccc(-c3n[nH]c4nc(N5CC[C@@H]6[C@H](C5)[C@@]6(CN)c5ccccc5F)cnc34)c(Cl)c21 [Example 228, 6-(6-((1S,6R,7R)-7-(aminomethyl)-7-(2-fluorophenyl)-3-azabicyclo[4.1.0]heptan-3-yl)-1H-pyrazolo[3,4-b]pyrazin-3-yl)-5-chloro-4-methyl-2H-benzo[b][1,4]oxazin-3(4H)-one] | < 500 | < 1000
10 | NC[C@]1(c2ccccc2F)[C@@H]2CCN(c3cnc4c(-c5ccc6nn(C7COC7)cc6c5Cl)n[nH]c4n3)C[C@@H]21 [Example 229, ((1S,6R,7R)-3-(3-(4-chloro-2-(oxetan-3-yl)-2H-indazol-5-yl)-1H-pyrazolo[3,4-b]pyrazin-6-yl)-7-(2-fluorophenyl)-3-azabicyclo[4.1.0]heptan-7-yl)methanamine] | < 500 | < 1000
11 | NC[C@]1(c2ccccc2F)[C@@H]2CCN(c3cnc4c(-c5ccc6c(c5)NC(=O)CC6)n[nH]c4n3)C[C@@H]21 [Example 230, 7-(6-((1S,6R,7R)-7-(aminomethyl)-7-(2-fluorophenyl)-3-azabicyclo[4.1.0]heptan-3-yl)-1H-pyrazolo[3,4-b]pyrazin-3-yl)-3,4-dihydroquinolin-2(1H)-one] | < 500 | < 1000
12 | NC[C@]1(c2ccccc2F)[C@@H]2CCN(c3cnc4c(-c5ccc6ccc(=O)[nH]c6c5)n[nH]c4n3)C[C@@H]21 [Example 231, 7-(6-((1S,6R,7R)-7-(aminomethyl)-7-(2-fluorophenyl)-3-azabicyclo[4.1.0]heptan-3-yl)-1H-pyrazolo[3,4-b]pyrazin-3-yl)quinolin-2(1H)-one] | < 500 | < 1000

Results, then the molecule that gave them:

Row | IC50 [1] [nM] | IC50 [2] [nM] | Structure (SMILES)
13 | < 500 | < 1000 | NC[C@]1(c2ccccc2F)[C@@H]2CCN(c3cnc4c(-c5cccc6c(=O)[nH]ccc56)n[nH]c4n3)C[C@@H]21 [Example 209, 5-(6-((1S,6R,7R)-7-(aminomethyl)-7-(2-fluorophenyl)-3-azabicyclo[4.1.0]heptan-3-yl)-1H-pyrazolo[3,4-b]pyrazin-3-yl)isoquinolin-1(2H)-one]
14 | < 500 | < 1000 | NC[C@]1(c2ccccc2F)[C@@H]2CCN(c3cnc4c(-c5cccc6[nH]c(=O)ccc56)n[nH]c4n3)C[C@@H]21 [Example 210, 5-(6-((1S,6R,7R)-7-(aminomethyl)-7-(2-fluorophenyl)-3-azabicyclo[4.1.0]heptan-3-yl)-1H-pyrazolo[3,4-b]pyrazin-3-yl)quinolin-2(1H)-one]
15 | < 500 | > 5000 | Cc1c(-c2n[nH]c3nc(N4CC[C@@H]5[C@H](C4)[C@@]5(CN)c4ccccc4F)cnc23)ccn2cnnc12 [Example 211, ((1S,6R,7R)-7-(2-fluorophenyl)-3-(3-(8-methyl-[1,2,4]triazolo[4,3-a]pyridin-7-yl)-1H-pyrazolo[3,4-b]pyrazin-6-yl)-3-azabicyclo[4.1.0]heptan-7-yl)methanamine]
16 | < 500 | > 5000 | CN(C)C(=O)c1ccc(-c2n[nH]c3nc(N4CC[C@@H]5[C@H](C4)[C@@]5(CN)c4ccccc4F)cnc23)c2cccnc12 [Example 212, 5-(6-((1S,6R,7R)-7-(aminomethyl)-7-(2-fluorophenyl)-3-azabicyclo[4.1.0]heptan-3-yl)-1H-pyrazolo[3,4-b]pyrazin-3-yl)-N,N-dimethylquinoline-8-carboxamide]
17 | < 500 | < 1000 | Cc1csc([C@@]2(CN)[C@@H]3CN(c4cnc5c(-c6ccc(F)c7ncccc67)n[nH]c5n4)C[C@@H]32)n1 [Example 213, ((1R,5S,6r)-3-(3-(8-fluoroquinolin-5-yl)-1H-pyrazolo[3,4-b]pyrazin-6-yl)-6-(4-methylthiazol-2-yl)-3-azabicyclo[3.1.0]hexan-6-yl)methanamine]
18 | < 500 | > 5000 | COc1ccc(-c2n[nH]c3nc(N4CC[C@@H]5[C@H](C4)[C@@]5(CN)c4ccccc4F)cnc23)nc1N [Example 214, 6-(6-((1S,6R,7R)-7-(aminomethyl)-7-(2-fluorophenyl)-3-azabicyclo[4.1.0]heptan-3-yl)-1H-pyrazolo[3,4-b]pyrazin-3-yl)-3-methoxypyridin-2-amine]
19 | < 500 | < 1000 | Cn1ccc(Oc2ccc(-c3n[nH]c4nc(N5CC[C@@H]6[C@H](C5)[C@@]6(CN)c5ccccc5F)cnc34)c(Cl)c2Cl)n1 [Example 215, ((1S,6R,7R)-3-(3-(2,3-dichloro-4-((1-methyl-1H-pyrazol-3-yl)oxy)phenyl)-1H-pyrazolo[3,4-b]pyrazin-6-yl)-7-(2-fluorophenyl)-3-azabicyclo[4.1.0]heptan-7-yl)methanamine]
20 | < 500 | < 1000 | NC[C@]1(c2ccccc2F)[C@@H]2CCN(c3cnc4c(-c5ccc6c(c5Cl)CC(=O)N6)n[nH]c4n3)C[C@@H]21 [Example 216, 5-(6-((1S,6R,7R)-7-(aminomethyl)-7-(2-fluorophenyl)-3-azabicyclo[4.1.0]heptan-3-yl)-1H-pyrazolo[3,4-b]pyrazin-3-yl)-4-chloroindolin-2-one]
21 | < 500 | < 1000 | CN1C(=O)Cc2cc(-c3n[nH]c4nc(N5CC[C@@H]6[C@H](C5)[C@@]6(CN)c5ccccc5F)cnc34)ccc21 [Example 217, 5-(6-((1S,6R,7R)-7-(aminomethyl)-7-(2-fluorophenyl)-3-azabicyclo[4.1.0]heptan-3-yl)-1H-pyrazolo[3,4-b]pyrazin-3-yl)-1-methylindolin-2-one]
22 | < 500 | < 1000 | NC[C@]1(c2ccccc2F)[C@@H]2CCN(c3cnc4c(-c5ccc6c(c5)CNC6=O)n[nH]c4n3)C[C@@H]21 [Example 218, 5-(6-((1S,6R,7R)-7-(aminomethyl)-7-(2-fluorophenyl)-3-azabicyclo[4.1.0]heptan-3-yl)-1H-pyrazolo[3,4-b]pyrazin-3-yl)isoindolin-1-one]
23 | < 500 | < 1000 | COc1ccc(-c2n[nH]c3nc(N4CC[C@@H]5[C@H](C4)[C@@]5(CN)c4ccccc4F)cnc23)c2ccncc12 [Example 219, ((1S,6R,7R)-7-(2-fluorophenyl)-3-(3-(8-methoxyisoquinolin-5-yl)-1H-pyrazolo[3,4-b]pyrazin-6-yl)-3-azabicyclo[4.1.0]heptan-7-yl)methanamine]

Source: patent US20240109900A1, “AZABICYCLIC SHP2 INHIBITORS” (IRBM S.P.A., priority 2021, published 2024)
